# What was measured:
# [1] = tested on: M2-induced THP-1 macrophages; assay: Reprogramming of M2-polarized THP-1 macrophages, marker mRNA by qPCR; type: cell-based, human; conditions: 48 hours incubation, FIGS. 3A-3F, compared with nontargeted Compound 1A
# [2] = Stability during incubation in culture media; type: physicochemical; conditions: 37° C. in the culture media, 48 hours
# Protocol: Indeed, Compound 1B retained the original structure after 48 hours incubation.
# BM-induced mice = assay: Bleomycin-induced pulmonary fibrosis, markers in bronchoalveolar lavage cells and fluid; type: in vivo, C57BL/6 mice
# Protocol: Fresh water and folate-deficient diet were freely available.
# After 2 hours, mice were sacrificed using CO2 asphyxiation and an incision in the skin from the abdomen to neck was immediately made to expose the lungs and trachea. A small cut in the upper trachea was then introduced for insertion of a blunted, 22-gauge needle, and a nylon string was tied around the trachea to seal the trachea around the needle. The trachea (containing the inserted needle), lungs and heart were then removed en masse by carefully cutting the connective tissue beneath the lungs, and the bronchus of left lung was clipped with a Dieffenbach vessel clip. The right lung was injected with PBS and aspirated 3 times using a 1 ml syringe, and the recovered lavage fluid was saved on ice.
# Bronchoalveolar lavage fluid (BALF) was then analyzed to determine how the targeted TLR7 agonist works. BALF samples were centrifuged at 1500 rpm for 5 min at 4° C., and the supernatant was aliquoted and stored at −80° C., for cytokine/chemokine analyses. Cell pellets were resuspended and cultured in pre-warmed RPMI 1640 medium for 2 hours and then washed 3x with pre-warmed PBS prior to harvesting for qPCR assay. The right lung was then tied with a nylon string and used for subsequent analysis of hydroxyproline content. The left lung was inflated with 1 ml PBS using the inserted syringe and transferred to 10% formalin solution for subsequent histological analyses.
# (§1) CCL18 and IL-1β were quantified in induced THP-1 cell supernatants using a human DuoSet ELISA Development System (R&D Systems Europe, Abingdon, UK: #DY394-05) and an IL-1 beta Human ELISA Kit (Thermo Fisher Scientific, Waltham, MA; #BMS224-2) as described by manufactures. BALF samples were analyzed for mouse IFN-γ using ELISA MAX™ Deluxe (Biolegend, San Diego, CA; #430804).
# [3] = tested on: M2-induced THP-1 macrophages; assay: Secreted CCL18 and IL-1β in THP-1 supernatants by ELISA; type: cell-based, human
# Protocol: FIGS. 6A-6D show graphical data representative of various marker levels measured from M2-induced THP-1 macrophages treated with different concentrations of drugs for 48 hours (FIGS. 6A and 6B) or for 2 hours, then displaced with fresh medium and cultured for the remaining 46 hours (FIGS. 6C and 6D). In both cases, cell supernatants were collected and secreted CCL18 protein and IL-1β was detected by ELISA.
# Further, to ensure that the above mRNA analyses accurately reflected the levels of anti-inflammatory cytokines produced by IL-4, IL-6 plus IL-13 stimulated THP-1 cells, the concentrations of CCL18 and IL-1β polypeptides in the THP-1 supernatants were quantitated by ELISA assay.
# as §1
# Additionally, cell supernatants were collected and secreted CCL18 protein was detected by ELISA.
# [4] = tested on: M2-induced human monocyte-derived macrophages; assay: Reprogramming of M2-induced human monocyte-derived macrophages with FA-glucosamine competition; type: cell-based; conditions: 100 nM, 2+46 hours
# Protocol: Arg1 (FIG. 19A), CD206 (FIG. 19B) and CD163 (FIG. 19C), and protein levels of secreted anti-inflammatory CCL18 (FIG. 19D) and proinflammatory cytokines, CXCL10 (FIG. 19E) and IL-6 (FIG. 19F) (n=3, technical replicates) were then determined. Changes in both sets of cytokines were inhibited by blockade of unoccupied folate receptors with excess FA-glucosamine (2+46 hours, competition).
# [5] = dosing every other day from day 10, BALF day 21
# [6] = continuous incubation 48 hours, ELISA
# Protocol for healthy mice: (FIGS. 20A-C) Measurement of plasma IL-6 (FIG. 20A), IFNα (FIG. 20B) and TNFα (FIG. 20C) (n=3). […] The effect of drug concentration on plasma levels of IL-6 (FIG. 20D), IFNα (FIG. 20E), and TNFα (FIG. 20F) was determined at 1.5 hours, 1 hour, or 1 hour after treatment, respectively (n=2) (FIG. 20G).
# The effect of drug on plasma levels of IL-6 (FIG. 23C) and TNFα (FIG. 23D) was determined at 1 hour or 1.5 hours after treatment.
structure (smiles),measurement,setting,value
CCCCc1nc2c(N)nc3ccccc3c2n1CC(C)(C)OC(=O)OCCSSCC(NC(=O)CCC(NC(=O)c1ccc(NCc2cnc3nc(N)[nH]c(=O)c3n2)cc1)C(=O)O)C(=O)O (stereo not drawn) [Compound 1B],"M2 to M1 marker changes, magnitude of impact",[1],somewhat reduced
same,stability during incubation,[2],remained stable
same,total number of BALF cells,BM-induced mice; different doses of Compound 1B,decreased in a dose-dependent manner
same,"Arg1 (qPCR, lavage macrophages)",BM-induced mice; [5],suppressed
same,CD86 transcripts (qPCR),BM-induced mice; [5],elevated
same,IFN-γ concentration (ELISA of lavage fluid),BM-induced mice; [5],elevated
same,IRAK-4,BM-induced mice; [5],upregulation
same,"MMP9 (qPCR, lavage macrophages)",BM-induced mice; [5],suppressed
same,"TIMP 3 (qPCR, lavage macrophages)",BM-induced mice; [5],suppressed
same,secreted CCL18 polypeptide,[3]; [6],reductions
same,secreted IL-1β polypeptide,[3]; [6],reductions
same,"reduction of secreted CCL18 and IL-1β, comparison of 1B with 1A","[3]; drug exposure limited to 2 hours, then 46 hours fresh medium",superior
same,"systemic cytokine release (plasma IL-6, IFNα, TNFα)",healthy mice; 10 nmol tail vein,does not
same,"inflammatory cytokine release, dose comparison","healthy mice; plasma at 1 or 1.5 hours, varied dose",stimulates less inflammatory cytokine release than half the dose of Compound 1A
same,downregulation of biomarkers with excess FA-glucosamine (competitor),[4],blocked

# Reference: US20260284016A1, “COMBINATIONS AND METHODS FOR ENHANCING CHECKPOINT INHIBITOR THERAPIES IN CANCER TREATMENT” (PURDUE RESEARCH FOUNDATION, priority 2004, published 2026)
